The source of these data is patent US6613879B1, “FAP-activated anti-tumour compounds” (Boehringer Ingelheim Pharma KG, priority 1999, dated 2003).

One test concerns the target T1, FAPα dimers (Homo sapiens, UniProt Q12884).
T1 sequence (Q12884 1-760): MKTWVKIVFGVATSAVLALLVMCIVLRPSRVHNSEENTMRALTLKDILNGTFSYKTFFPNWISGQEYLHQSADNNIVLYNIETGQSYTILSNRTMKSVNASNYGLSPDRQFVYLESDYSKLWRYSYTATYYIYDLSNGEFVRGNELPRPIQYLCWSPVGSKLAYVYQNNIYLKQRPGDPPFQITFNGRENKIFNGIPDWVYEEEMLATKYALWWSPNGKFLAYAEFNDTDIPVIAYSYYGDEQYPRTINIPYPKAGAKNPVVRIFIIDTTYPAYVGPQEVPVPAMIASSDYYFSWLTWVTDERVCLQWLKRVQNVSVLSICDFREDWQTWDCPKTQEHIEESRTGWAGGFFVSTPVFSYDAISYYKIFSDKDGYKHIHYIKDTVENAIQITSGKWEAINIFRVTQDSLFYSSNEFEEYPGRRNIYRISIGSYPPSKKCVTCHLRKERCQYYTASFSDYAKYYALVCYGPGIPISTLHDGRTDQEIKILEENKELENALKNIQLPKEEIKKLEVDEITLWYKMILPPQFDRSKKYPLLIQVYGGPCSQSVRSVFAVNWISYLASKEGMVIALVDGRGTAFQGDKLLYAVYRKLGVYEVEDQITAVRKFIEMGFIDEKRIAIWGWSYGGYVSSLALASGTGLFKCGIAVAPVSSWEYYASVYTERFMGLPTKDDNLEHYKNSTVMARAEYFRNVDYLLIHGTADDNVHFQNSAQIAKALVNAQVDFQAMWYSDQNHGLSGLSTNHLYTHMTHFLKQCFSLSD
The note with it: membrane overlay assay; cited from earlier work.

The target in the next test is DPP-IV (Homo sapiens, UniProt P27487). The experiment in a line: Cleavage specificity of MNA-peptide conjugates, DPP-IV. The note with it: release of free MNA. Type of test: biochemical. Here is the method: (§1) Release of free MNA from the peptides was then measured in a Cytofluor fluorimeter (Per-Septive Biosystems, Inc.) using the 355 nm excitation/405 nm emission filter set.
Chain of DPP-IV (P27487 whole entry, species assumed): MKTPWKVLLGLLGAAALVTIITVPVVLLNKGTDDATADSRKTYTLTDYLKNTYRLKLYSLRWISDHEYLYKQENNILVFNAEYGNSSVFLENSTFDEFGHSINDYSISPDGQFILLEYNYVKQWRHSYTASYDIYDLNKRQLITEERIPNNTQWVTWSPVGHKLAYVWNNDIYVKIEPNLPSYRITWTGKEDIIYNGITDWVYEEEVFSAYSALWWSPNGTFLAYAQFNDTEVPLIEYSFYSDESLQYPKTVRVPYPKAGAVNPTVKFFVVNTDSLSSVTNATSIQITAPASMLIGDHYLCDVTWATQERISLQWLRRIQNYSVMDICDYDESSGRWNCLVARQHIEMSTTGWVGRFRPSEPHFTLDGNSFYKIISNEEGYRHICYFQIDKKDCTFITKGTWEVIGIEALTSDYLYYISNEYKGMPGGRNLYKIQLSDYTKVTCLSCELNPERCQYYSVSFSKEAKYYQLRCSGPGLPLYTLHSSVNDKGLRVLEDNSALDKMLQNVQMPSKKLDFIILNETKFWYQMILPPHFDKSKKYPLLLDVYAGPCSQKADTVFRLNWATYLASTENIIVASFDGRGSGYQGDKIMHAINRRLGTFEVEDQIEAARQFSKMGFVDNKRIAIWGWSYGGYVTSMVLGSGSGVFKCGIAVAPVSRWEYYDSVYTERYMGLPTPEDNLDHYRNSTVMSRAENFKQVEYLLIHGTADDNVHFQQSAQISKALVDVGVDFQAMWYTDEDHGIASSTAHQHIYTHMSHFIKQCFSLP
(§2) Among the-known prolyl-specific serine oligopeptidase family members, the most closely related enzyme to FAPα is DPP-IV. Since active DPP-IV is found in plasma and on many different cell types, optimization of the relative (optional) selectivity of prodrug peptidics for FAPα compared to DPP-IV is necessary to reduce undesirable conversion of the prodrug at sites other than the tumor (e.g., in the plasma). To identify peptides specific for FAPα, cleavage of MNA-coupled peptides by FAPα was compared to the ability of DPP-IV to cleave the same peptide conjugates.

Another test addresses T2, FAPα (Homo sapiens, UniProt Q12884).
T2 sequence (Q12884 1-760): T1 sequence (Q12884 1-760)
The experiment in a line: Cleavage specificity of MNA-peptide conjugates, FAPα. In kind it is biochemical. The settings on record: release of free MNA. Here is the method: as §1, §2

Test [1] concerns the target T3, FAPα enzyme derived from membrane extracts of the 293-I/2 transfected cells (Homo sapiens, UniProt Q12884).
T3 construct: made in house; host or cells: human embryonic kidney 293 cells, clone 293-I/2, membrane extract
T3 sequence (Q12884 1-760): T1 sequence (Q12884 1-760)
The experiment in a line: FAPα-catalyzed cleavage of 4-methoxy-β-napthylamide (MNA)-peptide conjugates, enzyme kinetics. Type of test: biochemical. The note with it: release of free MNA, fluorimeter 355 nm/405 nm. On the procedure:
as §1

Test [2] deals with T4, soluble recombinant FAPα (FAPmCD8 fusion protein) (UniProt P01731+Q12884).
T4 construct: the extracellular domain of FAPα (amino acids 27 to 760), generating a fusion protein construct, FAPmCD8; extracellular domain of murine CD8α (Genbank M12825), N-terminal 189 amino acids (N); made in house; host or cells: High Five insect cells, recombinant baculovirus (pVL1393; amplified in Sf9)
T4 sequence (P01731+Q12884 fused): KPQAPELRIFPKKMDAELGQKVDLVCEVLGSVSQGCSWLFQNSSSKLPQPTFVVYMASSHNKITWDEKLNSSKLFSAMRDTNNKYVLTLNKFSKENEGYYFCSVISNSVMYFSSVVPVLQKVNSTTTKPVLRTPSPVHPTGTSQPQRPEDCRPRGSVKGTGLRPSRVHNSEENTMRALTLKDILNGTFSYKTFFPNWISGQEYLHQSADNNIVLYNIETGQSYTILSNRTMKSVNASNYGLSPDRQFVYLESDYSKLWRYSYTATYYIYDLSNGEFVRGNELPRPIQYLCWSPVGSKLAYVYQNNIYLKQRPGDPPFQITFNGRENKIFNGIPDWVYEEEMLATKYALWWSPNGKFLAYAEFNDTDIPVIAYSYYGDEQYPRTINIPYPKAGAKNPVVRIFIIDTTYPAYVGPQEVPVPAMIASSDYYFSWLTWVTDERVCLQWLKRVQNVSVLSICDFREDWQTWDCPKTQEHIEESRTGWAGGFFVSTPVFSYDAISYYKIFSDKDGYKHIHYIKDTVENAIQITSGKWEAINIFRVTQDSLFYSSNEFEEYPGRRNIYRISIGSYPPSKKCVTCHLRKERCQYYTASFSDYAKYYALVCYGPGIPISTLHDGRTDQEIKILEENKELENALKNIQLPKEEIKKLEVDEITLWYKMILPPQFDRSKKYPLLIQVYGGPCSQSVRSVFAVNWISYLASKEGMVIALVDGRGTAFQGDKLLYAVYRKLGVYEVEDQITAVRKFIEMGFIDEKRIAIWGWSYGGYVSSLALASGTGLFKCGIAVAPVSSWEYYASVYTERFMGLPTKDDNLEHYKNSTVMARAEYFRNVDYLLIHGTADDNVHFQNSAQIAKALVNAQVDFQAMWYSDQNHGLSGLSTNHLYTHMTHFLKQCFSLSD
The experiment in a line: Cleavage of doxorubicin-peptide conjugates by soluble recombinant FAPα (HPLC release of free doxorubicin). In kind it is biochemical, human. The note with it: for Cleavage by FAP: after 20 h. On the procedure:
A soluble recombinant form of FAPα protein was prepared as follows. […] The cDNAs were verified by sequencing and inserted into the pVL1393 vector. […] The culture supernatant of High Five cells infected with recombinant FAPmCD8 baculovirus for four days was collected and cleared by ultracentrifugation. FAPmCD8 fusion protein was purified from such supernatants using an anti-FAPα monoclonal antibody immobilized on activated agarose beads (Pierce Chemical, Indianapolis, Ind., USA). […] The samples were immediately neutralized with a saturated Tris solution (Sigma Chemicals, St. Louis, Mo.) and protein-containing fractions were pooled.
Doxorubicin-peptide conjugate stock solutions (5 mM) were diluted with Hepes-buffered saline pH 7.4 to a final concentration of 50 to 100 μM. Twenty μl of the resulting solution was mixed with 50 μl of purified FAPmCD8 fusion protein (approximately 20 ng) described above and 30 μl Hepes-buffered saline, pH 7.4. The mixture was allowed to incubate at 37° C. for 1 day and release of free doxorubicin was measured in the HPLC assay described. Areas under each peak were quantified using the software package above and the initial value was set to 100%. The rate of release of free doxorubicin was measured by the appearance of a peak with the same retention time as free doxorubicin under these HPLC conditions. The areas under each peak were used to calculate the relative amounts of free doxorubicin to doxorubicin-peptide conjugate.

Test [3] has as its system parental HT1080 cell line. The settings on record: 1 μM conjugate, serum-free medium, 19 hours at 37° C. Here is the method: (§3) Mammalian cell lines expressing recombinant FAPα were prepared. HT1080 fibrosarcoma cells, widely known and available from the DSMZ (German Collection of Microorganisms and Cell Cultures, Braunschweig, Germany) under the accession number DSMZ ACC 315, were maintained in a DMEM/F12 mix 50:50 containing 10% fetal bovine serum in an atmosphere of 95% air and 5% CO2. HT1080 cells were transfected with FAP.38 vector (WO 97/34927, Scanlan et al., loc. cit.) using the Lipofectin method according to the manufacturer's instructions (Gibco/BRL). Transfectants were selected for resistance to antibiotics (200 μg/ml Geneticin) and thereafter maintained in medium containing Geneticin. Individual colonies of resistant cells were picked, grown to confluence in 10 cm tissue culture petri dishes and tested for FAPα expression in an immunofluorescence assay using the FAPα-specific monoclonal antibody F19, as described (Garin-Chesa et al. (1990) Proc. Natl. Acad. Sci. USA 87(18), 7235-7239).
(§4) Samples were separated by reversed-phase high performance liquid chromatographic (HPLC) assay that was established to measure cleavage of doxorubicin-peptide conjugates. […] Free doxorubicin and doxorubicin-peptide conjugates were detected by fluorescence (excitation, 475 nm; emission, 585 nm) using a Waters 474 fluorescence detector. […]

For test [4], the target named is T5, cell-bound FAPα (FAP-expressing cell line HT1080 clone 33) (Homo sapiens, UniProt Q12884).
T5 construct: expressed in transfected cells; host or cells: HT1080 fibrosarcoma cells, clone 33
T5 sequence (Q12884 1-760): T1 sequence (Q12884 1-760)
The experiment in a line: Release of free doxorubicin by cell-bound FAPα, HT1080 clone 33 cells. Type of test: cell-based. The settings on record: 1 μM conjugate, serum-free medium, 19 hours at 37° C. Here is the method:
as §3, §4

Residues, ends and D or L forms follow the SMILES beside them. *: point of attachment. NH(4-MeO-2-naphthyl) = COc1cc(N*)cc2ccccc12; AFC = O=c1cc(C(F)(F)F)c2ccc(N*)cc2o1; Cbz = O=C(OCc1ccccc1)*

With `C[C@H](N)C(=O)N1CCC[C@H]1C(=O)Nc1ccc2c(C(F)(F)F)cc(=O)oc2c1` [Ala-Pro-7-amino-4-trifluoromethyl coumarin] (H-Ala-Pro-{AFC}), the “cleavage by FAPα dimers” value at FAPα dimers is “able to cleave”.
Regarding `COc1cc(NC(=O)C2CCCN2C(=O)C(C)N)cc2ccccc12` (stereo not drawn) [Ala-Pro-MNA], the “Cleavage specificity DPP IV” value at DPP-IV is recorded as “+”. The “Cleavage specificity FAP” value on FAPα is reported as “+”. For the same molecule, in test [1], the Kcat was 35.7 s⁻¹ and the Km (as a rule, the substrate concentration at which the rate is half of its maximum) was determined as 267 µM.
Consider `COc1cc(NC(=O)[C@@H]2CCCN2C(=O)[C@@H](N)CCCNC(=N)N)cc2ccccc12` [Arg-Pro-MNA], for which, in test [1], the Kcat was found to be 50.6 s⁻¹ and the Km was determined as 278 µM.
As for `COc1cc(NC(=O)[C@@H]2CCCN2C(=O)[C@@H](N)C2CCCCC2)cc2ccccc12` [Chg-Pro-MNA], in test [1], the Kcat was 53.7 s⁻¹ and the Km was 75 µM.
Regarding `COc1cccc2c1C(=O)c1c(O)c3c(c(O)c1C2=O)CC(O)(C(=O)CO)CC3OC1CC(NC(=O)C2CCCN2C(=O)CNC(=O)C(C)NC(=O)C2CCCN2C(=O)OCC2c3ccccc3-c3ccccc32)C(O)C(C)O1` (stereo not drawn) [Fmoc-Pro-Ala-Gly-, Fmoc-Pro-Ala-Gly-Pro-Dox], the “Cleavage by FAP” value in test [2] is over 95%.
Turning to `COc1cc(NC(=O)[C@@H]2CCCN2C(=O)[C@@H](N)CCC(N)=O)cc2ccccc12` [Gln-Pro-MNA], in test [1], the Kcat was 40.5 s⁻¹ and the Km was found to be 273 µM.
As to `NCC(=O)N1CCC[C@H]1C(=O)Nc1ccc2c(C(F)(F)F)cc(=O)oc2c1` [Gly-Pro-7-amino-4-trifluoromethyl coumarin] (H-Gly-Pro-{AFC}), the “cleavage by FAPα dimers” value at FAPα dimers was “able to cleave”.
Consider `COc1cccc2c1C(=O)c1c(O)c3c(c(O)c1C2=O)CC(O)(C(=O)CO)CC3OC1CC(NC(=O)C2CCCN2C(=O)C(N)C2CCCCC2)C(O)C(C)O1` (stereo not drawn) [H-Chg-, H-Chg-Pro-Dox], for which the “Cleavage by FAP” value in test [2] is given as over 95%.
Still for that read-out and setting: as for `COc1cccc2c1C(=O)c1c(O)c3c(c(O)c1C2=O)CC(O)(C(=O)CO)CC3OC1CC(NC(=O)C2CCCN2C(=O)CNC(=O)C(C)NC(=O)C2CCCN2)C(O)C(C)O1` (stereo not drawn) [H-Pro-Ala-Gly-, H-Pro-Ala-Gly-Pro-Dox], the entry is “ca. 11%”.
On to `COc1cc(NC(=O)[C@@H]2CCCN2C(=O)[C@@H](N)CCCCO)cc2ccccc12` [Hyn-Pro-MNA], for which, in test [1], the Kcat came out at 27.4 s⁻¹ and the Km amounted to 69 µM.
The matching figures for `CC[C@H](C)[C@H](N)C(=O)N1CCC[C@H]1C(=O)Nc1cc(OC)c2ccccc2c1` [Ile-Pro-MNA]: 12.6 s⁻¹ and 43 µM.
On to `NCCCC[C@H](N)C(=O)N1CCC[C@H]1C(=O)Nc1ccc2c(C(F)(F)F)cc(=O)oc2c1` [Lys-Pro-7-amino-4-trifluoromethyl coumarin] (H-Lys-Pro-{AFC}), for which, on FAPα dimers, the “cleavage by FAPα dimers” value is on record as “able to cleave”.
`COc1cc(NC(=O)C2CCCN2C(=O)C(N)CCCCN)cc2ccccc12` (stereo not drawn) [Lys-Pro-MNA]: in test [1], the Kcat came to 57.1 s⁻¹ and the Km is 530 µM.
For the molecule `COc1cc(NC(=O)[C@@H]2CCCN2C(=O)[C@@H](N)CC[S+](C)[O-])cc2ccccc12` (stereo partly drawn) [Met(O)-Pro-MNA], in test [1], the Kcat was 26.9 s⁻¹ and the Km is 378 µM.
For `COc1cc(NC(=O)[C@@H]2CCCN2C(=O)[C@@H](N)CCSC)cc2ccccc12` [Met-Pro-MNA] the same measures were 27.9 s⁻¹ and 127 µM.
For `COc1cc(NC(=O)[C@@H]2CCCN2C(=O)[C@@H]2CCCN2)cc2ccccc12` [Pro-Pro-MNA, Pro-Pro-4-methoxy-β-naphthylamide] the same measures were 49.5 s⁻¹ and 154 µM.
The matching figures for `COc1cc(NC(=O)[C@@H]2CCCN2C(=O)[C@@H](N)CO)cc2ccccc12` [Ser-Pro-MNA]: 28.3 s⁻¹ and 872 µM.
Consider `COc1cc(NC(=O)[C@@H]2CCCN2C(=O)[C@@H](N)C(C)C)cc2ccccc12` [Val-Pro-MNA], for which, in test [1], the Kcat is 27.7 s⁻¹ and the Km came out at 95 µM.
As for `COc1cc(NC(=O)C2CCCN2C(=O)CNC(=O)OCc2ccccc2)cc2ccccc12` (stereo not drawn) [Z-Gly-Pro-MNA], the “Cleavage specificity DPP IV” value at DPP-IV is “−”. Further, at FAPα, the “Cleavage specificity FAP” value is “+”.
For `COc1cc(NC(=O)C2CCCN2C(=O)CNC(=O)C(C)NC(=O)C2CCCN2C(=O)OCc2ccccc2)cc2ccccc12` (stereo not drawn) [Z-Pro-Ala-Gly-Pro-MNA] (Cbz-PAGP-{NH(4-MeO-2-naphthyl)}; configuration not given here) the same measures were “−” and “+”.
Take `COc1cccc2c1C(=O)c1c(O)c3c(c(O)c1C2=O)C[C@@](O)(C(=O)CO)C[C@@H]3O[C@H]1C[C@H](NC(=O)[C@@H]2CCCN2C(=O)CNC(=O)OCc2ccccc2)[C@H](O)[C@H](C)O1` [ZGP-Dox, N-Cbz-Gly-Pro-Doxorubicin]: the “conversion of conjugate to free doxorubicin by parental HT1080 cell line” value in test [3] amounted to 9%. Further, in test [2] (37° C., 1 day, approximately 20 ng FAPmCD8, Hepes-buffered saline pH 7.4, HPLC (FIG. 1)), the “conversion of conjugate to free doxorubicin after incubation with purified FAPmCD8 fusion protein” value is listed as “could be converted to free doxorubicin”. Also, the “Cleavage by FAP” value in test [2] is reported as over 95%. Moreover, the “conversion of conjugate to free doxorubicin by HT1080 clone 33” value in test [4] came out at 81%.
Take `COc1cc(NC(=O)[C@@H]2CCCN2C(=O)[C@@H]2C[C@@H](O)CN2)cc2ccccc12` [trans-Hyp-Pro-MNA]: in test [1], the Kcat was found to be 37.9 s⁻¹ and the Km turned out to be 254 µM.
